# Assay results taken from patent publication US20090047243A1, “COMBINATIONS FOR THE TREATMENT OF B-CELL PROLIFERATIVE DISORDERS” (priority 2007, published 2009).
# Where a name gives a salt, the structure may show the parent alone. Read-outs that look alike come from different tables or passages of the source.
# How the values were obtained:
# [1] = system: H929 multiple myeloma cell line; assay: Anti-proliferation assay (ATPLite, 72 h); assay type: cell-based, human; parameters: key: S = lnfX·lnfY·ΣIdata(Idata−ILoewe), volume over Loewe additivity
# Protocol: (§1) ANBL6 and INA-6 culture media was also supplemented with 10 ng/ml IL-6. […] MM.1S, MM.1R, OCI-ly10, Karpas 422, and SU-DHL6 cells were provided by the Dana Farber Cancer Institute. H929, RPMI-8226, GA-10, and Farage cells were from ATCC (Cat #'s CCL-155, CRL-9068, CRL-2392 and CRL-2630 respectively). MOLP-8, EJM, KSM-12-PE, and OPM2 were from DSMZ. The ANBL6 and INA-6 cell lines were provided by the M. D. Anderson Cancer Research Center. Compounds were prepared in DMSO at 1000× the highest desired concentration. Master plates were generated consisting of serially diluted compounds in 2- or 3-fold dilutions in 384-well format. For single agent dose response curves, the master plates consisted of 9 individual compounds at 12 concentrations in 2- or 3-fold dilutions. For combination matrices, master plates consisted of individual compounds at 6 or 9 concentrations at 2- or 3-fold dilutions. […] To obtain combination data, two master plates were diluted into the assay plates. […] Thirty microliters of ATPLite (Perkin Elmer) at room temperature was then added to each well. […] Measurements were taken at the top of the well using a luminescence aperture and a read time of 0.1 seconds per well. The percent inhibition (% I) for each well was calculated using the following formula: % I=[(avg. untreated wells-treated well)/(avg. untreated wells)]×100. […] Negative inhibition values result from local variations in treated wells as compared to untreated wells. […] The uncertainty of each fitted parameter was estimated from the range over which the change in reduced chi-squared was less than one, or less than minimum reduced chi-squared if that minimum exceeded one, to allow for underestimated σI errors. Single agent curve data were used to define a dilution series for each compound to be used for combination screening in a 6×6 matrix format. […] The Loewe additivity model was used to quantify combination effects. […] A “Synergy Score” was also used, where the Synergy Score S=log fX log fY ΣIdata(Idata-ILoewe), summed over all non-single-agent concentration pairs, and where log fX,Y is the natural logarithm of the dilution factors used for each single agent. This effectively calculates a volume between the measured and Loewe additive response surfaces, weighted towards high inhibition and corrected for varying dilution factors. An uncertainty σS was calculated for each synergy score, based on the measured errors for the Idata values and standard error propagation.
# [2] = system: human multiple myeloma cells (MM.1S); assay: Anti-proliferation assay (ATPLite, 72 h); assay type: cell-based; parameters: key to synergy score / synergy (score), PDEi × HE-NECA: S = lnfX·lnfY·ΣIdata(Idata−ILoewe), volume over Loewe additivity; conditions: for inhibition at 0.256 µM / inhibition at 0.767 µM / inhibition at 2.3 µM / inhibition at 6.9 µM / inhibition at 20.7 µM: Homo sapiens, MM1.S, read-out: percent inhibition of ATP in MM.1S cells; for inhibition at 0.256 µM: Papaverine 0.256 μM; for inhibition at 0.767 µM: Papaverine 0.767 μM; for inhibition at 2.3 µM: Papaverine 2.3 μM; for inhibition at 6.9 µM: Papaverine 6.9 μM; for inhibition at 20.7 µM: Papaverine 20.7 μM
# Protocol: as §1
# [3] = system: phosphodiesterase (PDE) types; conditions: PDE type(s) in brackets after the name; cited from earlier work
# [4] = system: RPMI-8226 multiple myeloma cell line; assay: Anti-proliferation assay (ATPLite, 72 h); assay type: cell-based, human; parameters: key: S = lnfX·lnfY·ΣIdata(Idata−ILoewe), volume over Loewe additivity
# Protocol: as §1
# [5] = system: human multiple myeloma cells (MM.1R); assay: Anti-proliferation assay (ATPLite, 72 h); assay type: cell-based; parameters: key: S = lnfX·lnfY·ΣIdata(Idata−ILoewe), volume over Loewe additivity
# Protocol: as §1
# [6] = system: human multiple myeloma cells (MM.1R) transfected with siRNA; assay: Anti-proliferation assay after siRNA transfection; assay type: cell-based; conditions: MM.1R, siRNA targeting PDE 2A, HE-NECA 0 nM
# Protocol: siRNA to adenosine receptor A1, A2A, A3, PDE 2A, PDE 3B, PDE 4B, PDE 4D and PDE 7A, and control siRNA siCON were purchased from Dharmacon. A2B siRNA was purchased from Invitrogen. Electroporations were performed using an Amaxa Nucleoporator (program S-20) and solution V. siRNAs were used at 50 nM. […] RNA was isolated using Qiagen RNAeasy kits, and targets quantified by RT-PCR using gene specific primers purchased from Applied Biosystems.
# Cells were added to 384-well plates 24 hours prior to compound addition such that each well contained 2000 cells in 35 μL of media. Master plates were diluted 100× (1 μL into 100 μL) into 384-well dilution plates containing only cell culture media. 4.5 μL from each dilution plate was added to each assay plate for a final dilution of 1000×. To obtain combination data, two master plates were diluted into the assay plates. Following compound addition, assay plates were kept at 37° C. and 5% CO2 for 72 hours. Thirty microliters of ATPLite (Perkin Elmer) at room temperature was then added to each well. Final amount of ATP was quantified within 30 minutes using ATPLite luminescent read-out on an Envision 2103 Multilabel Reader (Perkin Elmer). Measurements were taken at the top of the well using a luminescence aperture and a read time of 0.1 seconds per well.
# We also examined the antiproliferative activity of adenosine receptor agonists when the MM cell line MM.1R was transfected with siRNA targeting the A1, A2A, A2B or A3 receptor. Specific gene silencing (A1, A2A, A2B, or A3) was greater than 50% as determined by real time PCR analysis 48 hours post-transfection. At 48 hours post-transfection, cells were exposed to adenosine receptor agonist, incubated an additional 72 hours, and compounds assayed for antiproliferative activity. Representative data is in Table 34. Cells transfected with adenosine receptor siRNA or a control siRNA (scrambled sequences designed so that cellular transcriptsare not targeted) were treated with the adenosine receptor agonist ADAC. […] Similar results were obtained with a second siRNA with specificity for different region of the A2A receptor mRNA, confirming that the reduction in adenosine receptor agonist activity is the result of specific siRNA targeting of the A2A receptor (data not shown).
# In our experiments, PDE gene silencing was always greater than 50% as confirmed by real time PCR analysis 48 hours post-transfection. At 48 hours post-transfection, cells were exposed to adenosine receptor agonist and PDE inhibitor, incubated an additional 72 hours, and compounds assayed for antiproliferative activity. Representative data is in Tables 39-45. For each analysis, the activity of cells transfected with an siRNA targeting a specific PDE was compared to cells transfected with a control non-targeting siRNA (siCON).
# [7] = PDE inhibitor crossed with (S) ENBA, H929
# [8] = PDE inhibitor crossed with Chloro-IB-MECA, H929
# [9] = PDE inhibitor crossed with (S) ENBA, MM.1S
# [10] = PDE inhibitor crossed with Chloro-IB-MECA, MM.1S
# [11] = PDE inhibitor crossed with ADAC, H929
# [12] = PDE inhibitor crossed with HE-NECA, H929
# [13] = PDE inhibitor crossed with ADAC, MM.1S
# [14] = PDE inhibitor crossed with HE-NECA, MM.1S
# [15] = in combination with adenosine receptor agonist ADAC, RPMI-8226
# [16] = in combination with adenosine receptor agonist HE-NECA, RPMI-8226
# [17] = in combination with adenosine receptor agonist ADAC, H929
# [18] = in combination with adenosine receptor agonist HE-NECA, H929
# [19] = 10 ng/mL IL-6, HE-NECA conc. (μM)
# [20] = in combination with adenosine receptor agonist ADAC, MM.1S
# [21] = in combination with adenosine receptor agonist HE-NECA, MM.1S
# [22] = in combination with adenosine receptor agonist ADAC, MM.1R
structure (smiles),measurement,setting,value
Nc1nc(N)nc(-c2cc(Cl)ccc2Cl)n1 [Irsogladine],synergy score,[1]; [7],0.09
same,synergy score,[1]; [8],0.05
same,synergy score,[2]; [9],0.38
same,synergy score,[2]; [10],0.25
same,PDE inhibitors (specificity),[3],Irsogladine (4)
CCOC(=O)C1=C[C@]2(CC)CCCN3CCc4c(n1c1ccccc41)[C@@H]32 [Vinoceptine],synergy score,[1]; [7],0.21
same,synergy score,[1]; [11],0.01
same,synergy score,[1]; [12],0
same,synergy score,[2]; [9],0.25
same,synergy score,[2]; [13],0.02
same,synergy score,[2]; [14],0.26
same,PDE inhibitors (specificity),[3],Vinoceptine (1)
"COc1ccc(Cc2nccc3cc(OC)c(OC)cc23)cc1OC [Papaverine hydrochloride, 1-[(3.4-dimethoxyphenyl)-methyl]-6,7-dimethoxyisoquinolone]",synergy score,[4]; [15],1.158
same,synergy score,[4]; [16],0.3933
same,synergy score,[1]; [7],0.77
same,synergy score,[1]; [11],1.19
same,synergy score,[1]; [8],1.42
same,synergy score,[1]; [12],1.03
same,synergy score,[1]; [17],1.193
same,synergy score,[1]; [18],1.025
same,inhibition at 0.256 µM,[2]; [19],-2.4%
same,inhibition at 0.767 µM,[2]; [19],-0.1%
same,inhibition at 2.3 µM,[2]; [19],7.9%
same,inhibition at 6.9 µM,[2]; [19],46%
same,inhibition at 20.7 µM,[2]; [19],70%
same,inhibition at 0.256 µM,"[2]; no IL-6, HE-NECA conc. (nM)",9.1%
same,inhibition at 0.767 µM,"[2]; no IL-6, HE-NECA conc. (nM)",8.8%
same,inhibition at 2.3 µM,"[2]; no IL-6, HE-NECA conc. (nM)",23%
same,inhibition at 6.9 µM,"[2]; no IL-6, HE-NECA conc. (nM)",46%
same,inhibition at 20.7 µM,"[2]; no IL-6, HE-NECA conc. (nM)",68%
same,synergy score,[2]; [9],2.24
same,synergy score,[2]; [13],3.55
same,synergy score,[2]; [10],2.67
same,synergy score,[2]; [14],2.09
same,synergy score,[2]; [20],3.554
same,synergy score,[2]; [21],2.087
same,synergy score,[5]; [22],3.395
same,synergy score,"[5]; in combination with adenosine receptor agonist HE-NECA, MM.1R",2.128
CC(=O)CCCCn1c(=O)c2c(ncn2C)n(C)c1=O [Pentoxifylline],synergy score,[1]; [7],0.02
same,synergy score,[1]; [8],0.02
same,synergy score,[1]; [12],0.09
same,synergy score,[2]; [9],0.49
same,synergy score,[2]; [10],0.05
same,synergy score,[2]; [14],0.29
same,PDE inhibitors (specificity),[3],Pentoxifylline (pan)
COc1ccc([C@@H]2CNC(=O)C2)cc1OC1CCCC1 [R-(−)-Rolipram],synergy score,"[4]; in combination with adenosine receptor agonist CGS-21680, RPMI 8226",2.03
same,synergy score,[4]; [16],1.16
same,synergy score,"[4]; in combination with adenosine receptor agonist regadenoson, RPMI 8226",0.63
same,"synergy (score), PDEi × HE-NECA","[1]; 6×6 cross of PDE inhibitor or PDE inhibitor mixture with HE-NECA, H929",1.88
same,synergy score,"[1]; in combination with adenosine receptor agonist CGS-21680, H929",1.93
same,synergy score,[1]; [18],2.148
same,synergy score,"[1]; in combination with adenosine receptor agonist regadenoson, H929",1.91
same,"synergy (score), PDEi × HE-NECA","[2]; 6×6 cross of PDE inhibitor or PDE inhibitor mixture with HE-NECA, MM.1S",2.33
same,synergy score,"[2]; in combination with adenosine receptor agonist CGS-21680, MM.1S",1.92
same,synergy score,[2]; [21],2.965
same,synergy score,"[2]; in combination with adenosine receptor agonist regadenoson, MM.1S",1.83
same,Antiproliferative activity,[6]; R-(−)-Rolipram 0.23 μM,3.8
same,Antiproliferative activity,[6]; R-(−)-Rolipram 2 μM,8.1
same,Antiproliferative activity,[6]; R-(−)-Rolipram 6.1 μM,5.3
same,Antiproliferative activity,[6]; R-(−)-Rolipram 18 μM,7.7
same,Antiproliferative activity,[6]; R-(−)-Rolipram […],−1.2
same,synergy score,"[5]; in combination with adenosine receptor agonist CGS-21680, MM.1R",4.54
same,synergy score,"[5]; in combination with adenosine receptor agonist regadenoson, MM.1R",3.62
"OCCN(CCO)c1nc(N2CCCCC2)c2nc(N(CCO)CCO)nc(N3CCCCC3)c2n1 [Dipyridamole, 2-{[9-(bis(2-hydroxyethyl)amino)-2,7-bis(1-piperidyl)-3,5,8,10-tetrazabicyclo[4.4.0]deca-2,4,7,9,11-pentaen-4-yl]-(2-hydroxyethyl)amino}ethanol]",synergy score,[4]; [15],0.62
same,synergy score,[1]; [7],0.26
same,synergy score,[1]; [11],2.05
same,synergy score,[1]; [8],0.08
same,synergy score,[1]; [12],0.13
same,synergy score,[1]; [17],2.05
same,synergy score,[2]; [9],0.17
same,synergy score,[2]; [13],1.18
same,synergy score,[2]; [10],0.20
same,synergy score,[2]; [14],0.08
same,synergy score,[2]; [20],1.18
same,synergy score,[5]; [22],1.34
CC(C)Cn1c(=O)n(C)c(=O)c2[nH]cnc21 [IBMX],synergy score,[2]; [9],0.055
same,PDE inhibitors (specificity),[3],IBMX (pan)
